Reference: patent publication US20210155814A1, “ACTIVE-ENERGY-RAY-CURABLE AQUEOUS COMPOSITION, ACTIVE-ENERGY-RAY-CURABLE AQUEOUS INK, STORED CONTAINER, IMAGE FORMING APPARATUS, IMAGE FORMING METHOD, CURED PRODUCT, AND DECORATED PRODUCT” (priority 2019, published 2021)

Key:
Female mice = test: Skin sensitization test by local lymph node assay (LLNA) method, SI value of materials; format: in vivo; details: for SI (stimulation index, LLNA): test substance 50.0 w/v % in acetone:olive oil 4:1, 25 microliters per auricle, once a day for three days, BrdU intake by ELISA
Source text: The present disclosure can provide an active-energy-ray-curable aqueous composition excellent in scratch resistance and storage stability and safe in skin sensitizing potential. Safety in skin sensitizing potential means that a SI value, which is a degree of sensitizing potential, is 3 or lower in a skin sensitization test by the LLNA method.
The “LLNA method” mentioned above is a skin sensitization test stipulated in OECD (Organisation for Economic Co-operation and Development) Test Guidelines. As described in literatures (e.g., “Functional Material”, September 2005 issue, Vol. 25, No. 9, p. 55), LLNA method judges that a stimulation index (SI value) of 3 or lower as a degree of skin sensitizing potential is non-problematic in terms of skin sensitizing potential.
The SI value was measured in the manner described below by a skin sensitization test according to a local lymph node assay (LLNA) method.
As the positive control substance, α-hexyl cinnamaldehyde (HCA, obtained from Wako Pure Chemical Industries, Ltd.) was used.
As the medium, a mixture liquid containing acetone (obtained from Wako Pure Chemical Industries, Ltd.) and olive oil (obtained from Fudimi Pharmaceutical Co., Ltd.) in a volume ratio of 4:1 (acetone:olive oil) was used.
Female mice were acclimated to the test substance, the positive control, and the medium control for 8 days including 6-day quarantine. No abnormalities were found in all of the animals during the quarantine/acclimation period.
Based on the body weights measured 2 days before the initiation of sensitization, the animals were separated into […] (4 mice/group) by the body weight stratified random sampling method in a manner that the body weight of each individual was within ±20% of the average body weight of all individuals. Each of the animals was 8 weeks old to 9 weeks old at the time of the initiation of sensitization.
The test substance was weighed out in a volumetric flask, and the volume of the test substance was adjusted to 1 mL with addition of the medium. The prepared liquid was poured into a light-blocked airtight container (formed of glass).
HCA was accurately weighed out in an amount of about 0.25 g, and adjusted to 1 mL with addition of the medium, to prepare a 25.0 w/v % liquid. The prepared liquid was poured into a light-blocked airtight container (formed of glass).
5-Bromo-2′-deoxyuridine (BrdU, obtained from Nacalai Tesque, Inc.) (200 mg) was accurately weighed out in a volumetric flask, and dissolved in saline (obtained from Otsuka Pharmaceutical Co., Ltd.) added in the flask by ultrasonic irradiation. Subsequently, the resultant was adjusted to a volume of 20 mL, to prepare a 10 mg/mL liquid (BrdU preparation liquid). The prepared liquid was sterilized by filtration through a sterilized filtration filter and poured into a sterilized container.
The preparation liquids of each test substance and the positive control substance, and the medium were each applied to both auricles of the animals by 25 microliters each. A micropipetter was used for the application. This treatment was performed once a day for three consecutive days.
About 48 hours after the final sensitization, the BrdU preparation liquid was intraperitoneally administered once by 0.5 mL per animal.
About 24 hours after the BrdU administration, the animals were subjected to euthanasia, and their auricular lymph nodes were removed. Surrounding tissues of the auricular lymph nodes were removed, and the auricular lymph nodes on both sides were collectively weighted. The average and the standard error of the weights of the auricular lymph nodes were calculated per group. After the mass measurement, the auricular lymph nodes were cryopreserved per individual in a biomedical freezer set to −20 degrees C.
After the auricular lymph nodes were returned to room temperature, the auricular lymph nodes were ground with addition of saline and suspended in the saline. […]

[1] = format: cell-based; details: OECD TG471, ±S9 mix
Experimental: (§1) As a safety test, AMES test was performed according to OECD test guideline TG471 (±S9 mix), and the result was negative. Oral toxicity was tested according to OECD test guideline TG423. […] Skin stimulation was tested according to OECD test guideline TG404, and the result was PII=0.5. Skin sensitizing potential was tested according to OECD test guideline TG442B.

[2] = Oral toxicity according to OECD test guideline TG423; format: in vivo
Experimental: as §1

[3] = format: in vivo; details: OECD TG404
Experimental: as §1

Structure (SMILES)	SI (stimulation index, LLNA) (Female mice)	also measured
C=CC(=O)N(C)C(C)C(=O)OC (stereo not drawn) [Example A1-4, N-acryloyl-N-methylalaninemethyl ester]	(see Synthesis example 4) SI = 1.12	
C=C(C)C(=O)OCCO [Example A2-1, 2-hydroxyethyl methacrylate, reference compound]	Tokyo Chemical Industry Co., Ltd., “2-hydroxyethyl methacrylate” SI = 1.26	
C=CC(=O)N(C)CC(=O)OC [Example A1-1, N-acryloyl-N-methylglycinemethyl ester]	(see Synthesis example 1) SI = 1.00	SI value (skin sensitizing potential) (Female mice; OECD test guideline TG442B): 1.00; AMES test result [1]: negative; Fatal cases in oral toxicity test ([2]; OECD TG423): none of six cases was a fatal case; LD50 ([2]; in vivo, 2000 mg/kg, OECD TG423, oral): ≥ 2000 mg/kg; PII (skin stimulation) [3]: 0.5
C=CC(=O)NCCN(CCNC(=O)C=C)C(=O)C=C [Example B2-9]	FUJIFILM Corporation, FOM-03007, SI = 1.44	
C=C(C)C(=O)OCCOCCOC(=O)C(=C)C [Example B1-1]	Shin-Nakamura Chemical Co., Ltd., “2G”, SI = 1.05	
C=CC(=O)NCNC(=O)C=C [Example B2-5]	Tokyo Chemical Industry Co., Ltd., (product No. M2877), SI = 1.08	
C=CC(=O)NC(O)C(O)NC(=O)C=C (stereo not drawn) [Example B2-7]	Tokyo Chemical Industry Co., Ltd., (product No. D2864), SI = 1.01	
C=CC(=O)N(C)CCOC(C)=O [Example A1-8, N-(2-Acetyloxyethyl)-N-methyl acrylamide]	(see Synthesis example 13) SI = 1.10	
C=C(C)C(=O)OCC(COC(=O)C(=C)C)OC(C)=O [Example B1-6, 2-acetyl-1,3-glycerol dimethacrylate]	(see Synthesis example 8) SI = 1.40	
C=CC(=O)N(C)CCN(C)C(=O)C=C [Example B2-1]	(see Synthesis example 9) SI = 1.20	
C=C(C)C(=O)OCC(CC)(COC(=O)C(=C)C)COC(=O)C(=C)C [Example B1-3]	Shin-Nakamura Chemical Co., Ltd., “TMPT”, SI = 1.03	
C=CC(=O)NCCCOCCOCCOCCCNC(=O)C=C [Example B2-10]	FUJIFILM Corporation, FOM-03008, SI = 1.24	
C=CC(=O)N1CCC(C(=O)OCC)CC1 [Example A1-7, ethyl N-acryloylpiperidine-4-carboxylate]	(see Synthesis example 7) SI = 1.70	
C=CC(=O)NCCN(CCN(CCNC(=O)C=C)C(=O)C=C)C(=O)C=C [Example B2-11]	FUJIFILM Corporation, FOM-03009, SI = 1.52	
C=CC(=O)OC1CC2CCC1(C)C2(C)C (stereo not drawn) [Example A2-2, Isobornyl acrylate, reference compound]	Osaka Organic Chemical Industry Ltd., “Isobornyl acrylate”, SI = 8.30	
C=CC(=O)N(C)CCCCCCN(C)C(=O)C=C [Example B2-4]	(see Synthesis example 12) SI = 1.58	
C=CC(=O)N(CC)CCN(CC)C(=O)C=C [Example B2-2]	(see Synthesis example 10) SI = 1.33	
C=CC(=O)NCCNC(=O)C=C [Example B2-6]	Tokyo Chemical Industry Co., Ltd., (product No. E1086), SI = 1.23	
C=CC(=O)N(C)CC(=O)OCC [Example A1-2, N-acryloyl-N-methylglycineethyl ester]	(see Synthesis example 2) SI = 1.02	
